Assay results from article PMC8765293, “Inhibitor-Resistant Mutants Give Important Insights into Candida albicans ABC Transporter Cdr1 Substrate Specificity and Help Elucidate Efflux Pump Inhibition” (Antimicrobial Agents and Chemotherapy, 2022).
≈ marks a conversion by molar mass, not a printed value. Like-named read-outs stand apart in the source and are kept apart here.

What was measured:
[1] = target: wt Cdr1 ATPase activity (Candida albicans, UniProt Q5ANA3); test: biochemical; settings: for Vmax of ATPase activity in the presence of inhibitor: CDR1; for type of inhibition of ATPase activity (Lineweaver-Burk): wt Cdr1
[2] = system: AD/pABC3 (empty vector control, sensitive strain); settings: cited from earlier work
[3] = system: all strains, including AD/pABC3; test: Liquid MIC of efflux pump inhibitors alone
[4] = target: wt Cdr1 (FLC efflux of AD/CDR1 cells) (Candida albicans, UniProt Q5ANA3); settings: for lowest MICFLC in the presence of inhibitor: FLC 5 to 640 mg/L tested
[5] = target: Cdr1-G521R (FLC transport) (Candida albicans, UniProt Q5ANA3, G521R); test: Agarose diffusion FLC chemosensitization assay; assay type: cell-based; settings: 0.25× MICFLC, disc
Experimental: (§1) Compounds were tested for inhibition of FLC transport by yeast strains overexpressing Cdr1 or Cdr1 mutations.

[6] = target: Cdr1-M639I (FLC transport) (Candida albicans, UniProt Q5ANA3, M639I); test: Agarose diffusion FLC chemosensitization assay; assay type: cell-based; settings: 0.25× MICFLC, disc
Experimental: as §1

[7] = target: Cdr1-A713P (FLC transport) (Candida albicans, UniProt Q5ANA3, A713P); test: Agarose diffusion FLC chemosensitization assay; assay type: cell-based; settings: 0.25× MICFLC, disc
Experimental: as §1

[8] = target: Cdr1-T1355N (FLC transport) (Candida albicans, UniProt Q5ANA3, T1355N); test: Agarose diffusion FLC chemosensitization assay; assay type: cell-based; settings: 0.25× MICFLC, disc
Experimental: as §1

[9] = system: AD/CDR1-M639I; test: MIC, modified CLSI M27-A3 broth microdilution; settings: for Fold-reduced resistance level (MIC) relative to AD/CDR1: M639I, 1 = no change; for MIC: Saccharomyces cerevisiae, read-out: MIC (drug susceptibility)
[10] = system: AD/CDR1-G521R; test: MIC, modified CLSI M27-A3 broth microdilution; settings: for Fold-reduced resistance level (MIC) relative to AD/CDR1: G521R, 1 = no change; for MIC: Saccharomyces cerevisiae, read-out: MIC (drug susceptibility)
[11] = system: AD/CDR1-T1355N; test: MIC, modified CLSI M27-A3 broth microdilution; settings: for MIC: Saccharomyces cerevisiae, read-out: MIC (drug susceptibility); for Fold-reduced resistance level (MIC) relative to AD/CDR1: T1355N, 1 = no change
[12] = system: AD/CDR1-A713P; test: MIC, modified CLSI M27-A3 broth microdilution; settings: for MIC: Saccharomyces cerevisiae, read-out: MIC (drug susceptibility)
[13] = system: AD/CDR1 (AD1-8u- overexpressing wt Cdr1); test: MIC, modified CLSI M27-A3 broth microdilution; settings: Saccharomyces cerevisiae, read-out: MIC (drug susceptibility)
[14] = system: AD/pABC3 (empty vector control, sensitive strain)
[15] = system: AD/pABC3 (empty vector control, sensitive strain); test: microbe, parasite or virus in culture; settings: Saccharomyces cerevisiae
[16] = target: wt Cdr1 (FLC transport of AD/CDR1 cells) (Candida albicans, UniProt Q5ANA3); test: Agarose diffusion FLC chemosensitization assay; assay type: cell-based; settings: inhibitor-only control
Experimental: as §1

[17] = CDR1 (wt), from Fig. 4, read-out: IC50 for inhibition of Cdr1 ATPase activity

Chain of wt Cdr1 ATPase activity (Q5ANA3 whole entry): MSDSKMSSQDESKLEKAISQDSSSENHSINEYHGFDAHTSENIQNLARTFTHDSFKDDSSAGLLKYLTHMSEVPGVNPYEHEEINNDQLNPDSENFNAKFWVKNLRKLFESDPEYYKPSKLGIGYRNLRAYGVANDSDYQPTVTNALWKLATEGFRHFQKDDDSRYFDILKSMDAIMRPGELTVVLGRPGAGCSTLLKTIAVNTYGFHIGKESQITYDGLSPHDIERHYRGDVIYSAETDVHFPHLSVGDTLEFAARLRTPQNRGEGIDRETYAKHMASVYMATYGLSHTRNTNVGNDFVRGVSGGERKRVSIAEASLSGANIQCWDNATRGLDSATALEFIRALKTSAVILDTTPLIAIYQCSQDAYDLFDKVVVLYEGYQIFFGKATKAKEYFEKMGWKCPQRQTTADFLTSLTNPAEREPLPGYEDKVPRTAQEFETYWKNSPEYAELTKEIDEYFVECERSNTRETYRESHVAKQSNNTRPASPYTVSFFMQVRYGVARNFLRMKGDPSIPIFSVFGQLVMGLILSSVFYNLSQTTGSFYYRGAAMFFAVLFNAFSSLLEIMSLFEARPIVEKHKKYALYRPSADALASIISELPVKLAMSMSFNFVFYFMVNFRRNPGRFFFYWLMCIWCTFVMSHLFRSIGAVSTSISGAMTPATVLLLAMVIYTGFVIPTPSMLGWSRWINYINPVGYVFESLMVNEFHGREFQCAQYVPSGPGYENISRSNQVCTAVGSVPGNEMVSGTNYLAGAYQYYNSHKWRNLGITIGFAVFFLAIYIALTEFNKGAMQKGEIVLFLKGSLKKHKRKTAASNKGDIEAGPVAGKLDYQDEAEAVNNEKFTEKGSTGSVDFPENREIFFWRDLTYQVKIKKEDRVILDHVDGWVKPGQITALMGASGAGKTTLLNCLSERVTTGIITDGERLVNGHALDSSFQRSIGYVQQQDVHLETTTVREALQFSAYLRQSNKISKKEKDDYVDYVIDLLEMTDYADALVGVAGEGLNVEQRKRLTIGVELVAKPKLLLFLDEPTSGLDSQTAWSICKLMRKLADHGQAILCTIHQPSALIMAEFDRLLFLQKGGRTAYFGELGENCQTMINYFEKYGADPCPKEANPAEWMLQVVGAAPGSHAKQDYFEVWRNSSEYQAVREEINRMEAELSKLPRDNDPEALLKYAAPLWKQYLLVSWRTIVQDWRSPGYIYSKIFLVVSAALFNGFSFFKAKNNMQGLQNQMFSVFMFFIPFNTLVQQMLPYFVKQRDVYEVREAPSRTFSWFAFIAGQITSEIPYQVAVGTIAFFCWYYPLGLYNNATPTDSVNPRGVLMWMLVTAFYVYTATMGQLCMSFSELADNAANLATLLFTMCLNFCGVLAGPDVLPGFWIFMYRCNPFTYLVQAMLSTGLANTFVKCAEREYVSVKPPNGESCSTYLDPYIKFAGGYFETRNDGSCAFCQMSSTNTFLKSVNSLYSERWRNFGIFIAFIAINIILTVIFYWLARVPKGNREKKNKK
Chain of wt Cdr1 (FLC efflux of AD/CDR1 cells) (Q5ANA3 whole entry, the tested form may be a part): as the sequence (Q5ANA3 whole entry) above
Chain of Cdr1-A713P (FLC transport) (Q5ANA3 whole entry A713P, the tested form may be a part): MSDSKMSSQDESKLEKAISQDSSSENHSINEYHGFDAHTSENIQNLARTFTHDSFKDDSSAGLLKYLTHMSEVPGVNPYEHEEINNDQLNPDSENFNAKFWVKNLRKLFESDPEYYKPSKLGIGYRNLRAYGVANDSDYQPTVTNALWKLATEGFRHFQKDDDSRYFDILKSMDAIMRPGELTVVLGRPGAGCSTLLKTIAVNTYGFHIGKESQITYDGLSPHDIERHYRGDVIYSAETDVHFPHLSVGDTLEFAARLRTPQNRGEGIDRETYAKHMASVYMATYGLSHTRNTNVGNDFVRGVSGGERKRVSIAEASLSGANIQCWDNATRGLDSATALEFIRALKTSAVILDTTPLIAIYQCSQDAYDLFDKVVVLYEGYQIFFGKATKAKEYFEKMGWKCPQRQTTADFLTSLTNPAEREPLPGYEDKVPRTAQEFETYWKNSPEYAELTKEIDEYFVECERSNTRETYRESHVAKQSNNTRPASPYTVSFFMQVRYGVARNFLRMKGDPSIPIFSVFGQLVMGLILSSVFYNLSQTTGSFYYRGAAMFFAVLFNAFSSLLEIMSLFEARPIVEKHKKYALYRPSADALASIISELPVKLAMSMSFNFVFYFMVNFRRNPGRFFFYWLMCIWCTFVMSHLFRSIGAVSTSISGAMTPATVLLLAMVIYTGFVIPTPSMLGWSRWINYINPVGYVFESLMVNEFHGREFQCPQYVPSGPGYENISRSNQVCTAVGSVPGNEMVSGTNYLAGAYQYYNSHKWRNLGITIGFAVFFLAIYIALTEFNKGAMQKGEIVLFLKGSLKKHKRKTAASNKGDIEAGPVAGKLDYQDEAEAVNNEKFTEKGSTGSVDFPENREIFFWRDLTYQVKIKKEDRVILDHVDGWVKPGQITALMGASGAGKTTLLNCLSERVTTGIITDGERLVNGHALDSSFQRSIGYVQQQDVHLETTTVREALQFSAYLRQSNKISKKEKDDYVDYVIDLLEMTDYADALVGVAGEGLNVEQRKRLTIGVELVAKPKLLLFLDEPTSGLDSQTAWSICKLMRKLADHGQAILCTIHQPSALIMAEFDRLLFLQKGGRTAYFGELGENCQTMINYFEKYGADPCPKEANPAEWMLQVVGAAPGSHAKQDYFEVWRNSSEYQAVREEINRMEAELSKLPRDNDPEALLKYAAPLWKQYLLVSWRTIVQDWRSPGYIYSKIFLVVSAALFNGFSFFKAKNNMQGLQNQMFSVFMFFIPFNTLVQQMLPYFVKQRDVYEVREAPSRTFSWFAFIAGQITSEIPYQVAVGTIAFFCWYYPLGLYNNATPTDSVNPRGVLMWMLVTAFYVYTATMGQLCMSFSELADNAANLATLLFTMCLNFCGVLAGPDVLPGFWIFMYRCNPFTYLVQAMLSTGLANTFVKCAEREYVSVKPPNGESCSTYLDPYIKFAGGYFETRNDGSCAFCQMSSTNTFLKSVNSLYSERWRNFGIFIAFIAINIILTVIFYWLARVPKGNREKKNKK

Row | Compound | Vmax of ATPase activity in the presence of inhibitor ([1]; [I] 0.5 μM) [nmol/min/mg] | type of inhibition of ATPase activity (Lineweaver-Burk) [1] | synergy with the Cdr1 substrates FLC and R6G [2] | FICI (inhibitor/FLC combination) [4] | IC50 [4] [nM] | lowest inhibitor concentration necessary to achieve the lowest MICFLC ([4]; CDR1) [µM] | lowest MICFLC in the presence of inhibitor ([4]; CDR1) [mg/L] | susceptibility of FLC transport to inhibitor on agar [5] | susceptibility of FLC transport to inhibitor on agar [6] | susceptibility of FLC transport to inhibitor on agar [7] | susceptibility of FLC transport to inhibitor on agar [8] | IC50 [1, 17] [nM] | Fold-reduced resistance level (MIC) relative to AD/CDR1 [9] [fold] | MIC [9] [µg/mL] | Fold-reduced resistance level (MIC) relative to AD/CDR1 [10] [fold] | MIC [10] [µg/mL] | MIC [11] [µg/mL] | Fold-reduced resistance level (MIC) relative to AD/CDR1 [11] [fold] | MIC [12] [µg/mL] | MIC [13] [µg/mL] | also measured
1 | CC(C)[C@H]1C(=O)O[C@H](C(C)C)C(=O)N(C)[C@@H](C(C)C)C(=O)O[C@H](C(C)C)C(=O)N(C)[C@@H](C(C)C)C(=O)O[C@H](C(C)C)C(=O)N1C [Enniatin B, enniatin B] | 98 | noncompetitive inhibition | no synergy | <0.13 | 160 | 1.25 | 5 | resistant | substantial resistance | remained susceptible | substantial resistance |  |  |  |  |  |  |  |  |  | IC50 [1]: 180 nM; Ki [1]: 200 ± 30 nM; Vmax of ATPase activity in the presence of inhibitor ([1]; [I] 0.1 μM): 182 nmol/min/mg; MIC ([3]; Saccharomyces cerevisiae, read-out: MIC of inhibitor alone): 10 µM
2 | C=CC[C@@H]1/C=C(\C)C[C@H](C)C[C@H](OC)[C@H]2O[C@@](O)(C(=O)C(=O)N3CCCC[C@H]3C(=O)O[C@H](/C(C)=C/[C@@H]3CC[C@@H](O)[C@H](OC)C3)[C@H](C)[C@@H](O)CC1=O)[C@H](C)C[C@@H]2OC [FK506] | 233 | noncompetitive inhibition | no synergy | <0.26 | 2500 | 40 | 5 | resistant | remained susceptible | resistant | remained susceptible | 1250 |  |  |  |  |  |  |  |  | Ki ([1]; CDR1 (wt), Dixon plot, read-out: Ki (Cdr1 ATPase activity)): 1210 ± 240 nM; Vmax of ATPase activity in the presence of inhibitor ([1]; [I] 1.0 μM): 164 nmol/min/mg
3 | OC(Cn1cncn1)(Cn1cncn1)c1ccc(F)cc1F [FLC, fluconazole] |  |  |  |  |  |  |  |  |  |  |  |  | 1 | 640 (≈ 2090 µM) | 4 | 160 (≈ 522 µM) | 320 (≈ 1040 µM) | 2 | 320 (≈ 1040 µM) | 640 (≈ 2090 µM) | effect of substrate on ATPase activity [1]: no effect; Fold-reduced resistance level (MIC) relative to AD/CDR1 ([12]; A713P, 1 = no change): 2 fold; MIC (drug susceptibility) [14]: 1 µg/mL (≈ 3.27 µM); MIC ([15]; read-out: MIC (drug susceptibility)): 1.25 µg/mL (≈ 4.08 µM); MICFLC [4]: 640 mg/L
4 | CC/N=c1\cc2oc3cc(NCC)c(C)cc3c(-c3ccccc3C(=O)OCC)c-2cc1C [R6G, rhodamine 6G] |  |  |  |  |  |  |  |  |  |  |  |  | 2 | 16 (≈ 36.2 µM) | 8 | 4 (≈ 9.04 µM) | 32 (≈ 72.3 µM) | 1 | 32 (≈ 72.3 µM) | 32 (≈ 72.3 µM) | IC50 ([1]; CDR1 (wt), > = only partial inhibition, none = no reduction at highest concentration, read-out: Estimated IC50 for substrate inhibition of the ATPase activity): 32000 nM; MIC ([15]; read-out: MIC (drug susceptibility), strain AD/pABC3): 0.5 µg/mL (≈ 1.13 µM)
5 | beauvericin | 63 | noncompetitive inhibition | no synergy | <0.13 |  | 1.25 | 5 | resistant |  | remained susceptible | slightly more resistant |  |  |  |  |  |  |  |  |  | Vmax of ATPase activity in the presence of inhibitor ([1]; [I] 0.2 μM): 132 nmol/min/mg
6 | milbemycin α25 |  |  |  | <0.02 |  | 0.63 | 5 | more resistant | most resistance | resistant | most resistance | 2800 |  |  |  |  |  |  |  |  | MIC of inhibitor alone ([3]; all strains, including AD/pABC3): > 20 µM; FICI (inhibitor/FLC combination) ([4]; listed as milbemycin α25): 0.02; IC50 ([4]; read-out: IC50 for inhibition of FLC efflux (MICFLC), CDR1, live whole cells, from Fig. 3B): 80 nM; toxicity of inhibitor alone on agar without FLC [16]: slight growth inhibitory zone
